What was measured:
[1] = system: HCT116 MTAP WT cells; test: Proliferation inhibition of HCT116 cells in vitro (CellTiter Glo, 6 days); type: cell-based; details: Homo sapiens, HCT-116, 144 h, read-out: Cell proliferation inhibition rate HCT116 MTAP WT IC50 (nm)
Source text: (§1) Biological Test Example 2 Proliferation Inhibition of HCT116 and HCT116 MTAP-KO Cells In Vitro
(§2) HCT116 cell line was purchased from the Chinese Academy of Sciences Cell Bank, and the MTAP gene was knocked out by CRISPR/Cas9 technology to obtain HCT116-MTAP-KO cell line.
(§3) McCoy's 5A medium (Gibco, catalog No. 16600082), fetal bovine serum (Gibco, catalog No. 10099141C), penicillin-streptomycin double antibody (Gibco, catalog No. 15140122), pancreatic enzyme (Gibco, catalog No. 25200056), CellTiter Glo assay kit (Promega, catalog No. G7572), 384-well transparent flat-bottomed black walled cell culture plate (Corning, catalog No. 3764), ultra micro sampler (Tecan, catalog No. D300e), Multimode reader (Biotek, catalog No. SynergyHTX)
(§4) • 1. Cell culture: HCT116 and HCT116-MTAP-KO cells were cultured in McCoy'5A medium+10% fetal bovine serum+1% penicillin-streptomycin double antibody; to ensure that they were always in the logarithmic growth phase and the cell viability greater than 95%. • 2. Compound concentration gradient preparation: The compound to be tested was added to a 384-well plate using an ultra micro sampler, starting from 30 μM (HCT116 cells) or 3 μM (HCT116-MTAP-KO cells), and diluted with DMSO at 3 times for a total of 9 concentrations and set up three duplicate wells. • 3. Treatment of cells with compounds: Trypsin-digested HCT116 or HCT116-MTAP-KO cell suspension was added to the 384-well plates spotted with the compounds to be tested at 40 μL per well, i.e., 100 cells per well, and the final concentration of DMSO was 0.4%. The cell culture plate was incubated at 37° C. in a 5% CO2 incubator for 6 days. • 4. Detection: 20 μL of CellTiter Glo reagent was added to each well of the cell culture plate and incubated at room temperature for 30 minutes. A multimode reader was used to detect the luminescence signal at […]. • 5. Data analysis:
(§5) The data was fitted with GraphPad Prism 8.0 software using a four parameter inhibitor-reaction model to obtain the […] (half inhibitory concentration) of the test compounds.
(§6) The first column represents cell proliferation inhibition rate HCT116 MTAP WT IC50 (nm), and the second column represents cell proliferation inhibition rate HCT116-MTAP null IC50 (nm): […]

[2] = system: HCT116-MTAP-KO (MTAP null) cells; test: Proliferation inhibition of HCT116 MTAP-KO cells in vitro (CellTiter Glo, 6 days); type: cell-based; details: HCT116-MTAP null, 144 h, read-out: Cell proliferation inhibition rate HCT116-MTAP null IC50 (nm)
Source text: as §1, §2, §3, §4, §5, §6

| SMILES | IC50 [1] | IC50 [2] |
| --- | --- | --- |
| CC(C)CN(Cc1cn2cc(C(F)(F)F)ccc2n1)C(=O)c1ccc2nc(N)c3c(c2c1)COC3 [Example 3, 4-Amino-N-isobutyl-N—((6-(trifluoromethyl)imidazolo [1,2-a]pyridin-2-yl)methyl)-1,3-dihydrofurano [3,4-c] quinolin-8-carboxamide] | 1 to 10 µM | < 0.1 µM |
| CC1OCc2c1c(N)nc1ccc(C(=O)N(Cc3cn4ccccc4n3)C(C)c3ncccn3)cc21 (centres unmarked) [Example 5] | 1 to 10 µM | < 0.1 µM |
| CCN(Cc1cn2ccccc2n1)C(=O)c1ccc2nc(N)c3c(c2c1)COC3 [Example 6] | 1 to 10 µM | < 0.1 µM |
| CCN(Cc1cn2ccccc2n1)C(=O)c1ccc2nc(N)c3c(c2c1)COC3C (centres unmarked) [Example 7] | 1 to 10 µM | < 0.1 µM |
| Cc1cc2cc(C(=O)N(Cc3cn4ccccc4n3)C(C)c3ncccn3)ccc2nc1N (centres unmarked) [Example 8] | 1 to 10 µM | < 0.1 µM |
| Cn1ncc2c(N)nc3cc(F)c(C(=O)N(Cc4cn5ccccc5n4)C4COC4)cc3c21 [Example 9] | 1 to 10 µM | 0.1 to 1 µM |
| CCN(C(=O)c1cc2c(cc1F)nc(N)c1cnn(C)c12)C(C)c1cn2ccccc2n1 (centres unmarked) [Example 10] | 1 to 10 µM | < 0.1 µM |
| COCCN(Cc1cn2ccccc2n1)C(=O)c1cc2c(cc1F)nc(N)c1cnn(C)c12 [Example 11] | 1 to 10 µM | < 0.1 µM |
| Cn1ncc2c(N)nc3cc(F)c(C(=O)N(Cc4cn5ccccc5n4)C45CC(C4)C5)cc3c21 [Example 12] | 0.1 to 1 µM | < 0.1 µM |
| Cn1cc(N(Cc2cn3ccccc3n2)C(=O)c2cc3c(cc2F)nc(N)c2cnn(C)c23)cn1 [Example 14] | 1 to 10 µM | < 0.1 µM |
| CCN(C(=O)c1ccc2nc(N)c3c(cnn3C)c2c1)C(C)c1cn2ccccc2n1 (centres unmarked) [Example 15] | 1 to 10 µM | 0.1 to 1 µM |
| Cn1cc(N(Cc2cn3cc(C(F)(F)F)ccc3n2)C(=O)c2ccc3nc(N)c4cnn(C)c4c3c2)cn1 [Example 16] | 1 to 10 µM | 0.1 to 1 µM |
| CCN(Cc1cn2ccccc2n1)C(=O)c1ccc2nc(N)c3cnn(C)c3c2c1 [Example 18] | 1 to 10 µM | < 0.1 µM |
| CC1COCC(c2cn3ccccc3n2)N1C(=O)c1cc2c(cc1F)nc(N)c1cnn(C)c12 (centres unmarked) [Example 19] | 0.1 to 1 µM | < 0.1 µM |
| CC(C)CN(Cc1cn2cc(C#N)ccc2n1)C(=O)c1cc2c(cc1F)nc(N)c1cnn(C)c12 [Example 20] | 0.1 to 1 µM | < 0.1 µM |
| Cn1ncc2c(N)nc3cc(F)c(C(=O)N(Cc4cn5ccccc5n4)C4CCOC4)cc3c21 (centres unmarked) [Example 22] | 1 to 10 µM | 0.1 to 1 µM |
| Cn1ncc2c(N)nc3cc(F)c(C(=O)N(Cc4cn5ccccc5n4)C4CCCC4O)cc3c21 (centres unmarked) [Example 23] | 1 to 10 µM | < 0.1 µM |
| Cn1ncc2c(N)nc3cc(F)c(C(=O)N(Cc4cn5ccccc5n4)C4CCCCC4O)cc3c21 (centres unmarked) [Example 24] | 1 to 10 µM | < 0.1 µM |
| CC1COCC(c2cn3ccccc3n2)N1C(=O)c1ccc2nc(N)c3c(cnn3C)c2c1 (centres unmarked) [Example 25] | 1 to 10 µM | 0.1 to 1 µM |
| Cn1ncc2c(N)nc3cc(F)c(C(=O)N(Cc4cn5ccccc5n4)CC(F)F)cc3c21 [Example 26] | 1 to 10 µM | < 0.1 µM |
| Cn1ncc2c(N)nc3cc(F)c(C(=O)N(Cc4cn5ccccc5n4)CC(C)(F)F)cc3c21 [Example 27] | 1 to 10 µM | < 0.1 µM |
| CC(N(Cc1cn2ccccc2n1)C(=O)c1cc2c(cc1F)nc(N)c1cnn(C)c12)C(F)(F)F (centres unmarked) [Example 28] | 1 to 10 µM | < 0.1 µM |

| SMILES | IC50 [1] | IC50 [2] |
| --- | --- | --- |
| CCN(Cc1cn2ccccc2n1)C(=O)c1ccc2nc(N)c3c(cnn3C)c2c1 [Example 29] | 1 to 10 µM | 0.1 to 1 µM |
| CCN(Cc1nc2ccccn2c1C)C(=O)c1cc2c(cc1F)nc(N)c1cnn(C)c12 [Example 30] | 1 to 10 µM | < 0.1 µM |
| CC(c1cn2ccccc2n1)N(C(=O)c1cc2c(cc1F)nc(N)c1cnn(C)c12)C12CC(C1)C2 (centres unmarked) [Example 31] | 1 to 10 µM | < 0.1 µM |
| Cc1cc2cc(C(=O)N(Cc3cn4ccccc4n3)C(C)c3cccc(F)n3)ccc2nc1N (centres unmarked) [Example 32] | 1 to 10 µM | < 0.1 µM |
| CCN(C(=O)c1ccc2nc(N)c3c(c2c1)COC3C)C(C)c1cn2ccccc2n1 (centres unmarked) [Example 33] | 1 to 10 µM | 0.1 to 1 µM |
| CC(C)CN(Cc1cn2cc(C(F)(F)C(F)(F)F)ccc2n1)C(=O)c1cc2c(cc1F)nc(N)c1cnn(C)c12 [Example 34] | < 0.1 µM | < 0.1 µM |
| COCCOc1ccc2nc(CN(CC(C)C)C(=O)c3cc4c(cc3F)nc(N)c3cnn(C)c34)cn2c1 [Example 35] | 1 to 10 µM | < 0.1 µM |
| CC(C)CN(Cc1cn2cc(C(F)(F)F)ccc2n1)C(=O)c1cc2c(cc1F)nc(N)c1cnn(C)c12 [Example 36] | 0.1 to 1 µM | < 0.1 µM |
| [2H]C([2H])([2H])N(Cc1cn2ccccc2n1)C(=O)c1cc2c(cc1F)nc(N)c1cnn(C)c12 [Example 37] | 1 to 10 µM | < 0.1 µM |
| Cc1cc2cc(C(=O)N(Cc3cn4ccccc4n3)C(C)c3ncccn3)c(F)cc2nc1N (centres unmarked) [Example 38] | 1 to 10 µM | < 0.1 µM |
| Cc1cc2cc(C(=O)N(Cc3cn4cc(C(F)(F)F)ccc4n3)C(C)c3ncccn3)c(F)cc2nc1N (centres unmarked) [Example 39] | 1 to 10 µM | < 0.1 µM |
| CCN(C(=O)c1cc2cc(C)c(N)nc2cc1F)C(C)c1cn2ccccc2n1 (centres unmarked) [Example 40] | 1 to 10 µM | < 0.1 µM |
| COCCN(Cc1cn2cc(C(F)(F)F)ccc2n1)C(=O)c1ccc2nc(N)c3c(c2c1)COC3C (centres unmarked) [Example 41] | 1 to 10 µM | < 0.1 µM |
| CC1OCc2c1c(N)nc1ccc(C(=O)N(Cc3cn4cc(C(F)(F)F)ccc4n3)c3cnn(C)c3)cc21 (centres unmarked) [Example 42, 4-Amino-3-methyl-N-(1-methyl-1H-pyrazol-4-yl)-N-((6-(trifluoromethyl)imidazolo[1,2-a]pyridin-2-yl)methyl)-1,3-dihydrofurano[3,4-c]quinolin-8-carboxamide] | 1 to 10 µM | < 0.1 µM |
| CC1OCc2c1c(N)nc1ccc(C(=O)N(Cc3cn4cc(C(F)(F)F)ccc4n3)C34CC(C3)C4)cc21 (centres unmarked) [Example 43] | 1 to 10 µM | < 0.1 µM |
| COCC(C)N(Cc1cn2cc(C(F)(F)F)ccc2n1)C(=O)c1ccc2nc(N)c3c(c2c1)COC3C (centres unmarked) [Example 44] | 1 to 10 µM | < 0.1 µM |
| COC1CC(N(Cc2cn3ccccc3n2)C(=O)c2cc3c(cc2F)nc(N)c2cnn(C)c23)C1 (centres unmarked) [Example 45] | 1 to 10 µM | < 0.1 µM |
| CCN(Cc1cn2ccccc2n1)C(=O)c1ccc2nc(N)c3c(c2c1)CO[C@H]3C [Example 47] | 1 to 10 µM | < 0.1 µM |
| C[C@H]1OCc2c1c(N)nc1ccc(C(=O)N(Cc3cn4cc(C(F)(F)F)ccc4n3)c3cnn(C)c3)cc21 [Example 48] | 1 to 10 µM | 1 to 10 µM |
| C[C@@H]1OCc2c1c(N)nc1ccc(C(=O)N(Cc3cn4cc(C(F)(F)F)ccc4n3)c3cnn(C)c3)cc21 [Example 49] | 1 to 10 µM | < 0.1 µM |
| Cc1nn(C)cc1N(Cc1cn2cc(C(F)(F)F)ccc2n1)C(=O)c1cc2c(cc1F)nc(N)c1cnn(C)c12 [Example 238] |  | 0.1 to 1 µM |
| Cn1nccc1N(Cc1cn2cc(C(F)(F)F)ccc2n1)C(=O)c1cc2c(cc1F)nc(N)c1cnn(C)c12 [Example 240] |  | < 0.1 µM |

Source: patent publication US20240376126A1, “PRMT5 INHIBITOR AND THE USE THEREOF” (CYTOSINLAB THERAPEUTICS CO., LTD., priority 2022, published 2024)
